One data set deals with sAPPα. The experiment in a line: sAPPα secretion (MSD sAPPα/sAPPβ Multiplex Kit). The class given is cell-based, human. The conditions noted are these: concentration increasing sAPPα 1.5-fold vs untreated control. The protocol:
(§1) A selection of compounds with several selected activities was performed including sAPPα and sAPPβ, which were further explored. […] The decrease in Aβ could result from a decrease in either β- or γ-secretase cleavage or an increase in the α-secretase cleavage of APP. Thus, medium concentrations of sAPPβ and sAPPα, which are the β- and α-secretase extramembrane shed APP fragments, were determined after cell drug treatments.
The human neuroblastoma cell line SY5Y-APP^695WT was maintained in Dulbecco’s modified Eagle medium (DMEM, high glucose, pyruvate—GIBCO, Life Technologies, Carlsbad, CA, USA) supplemented with 10% fetal bovine serum, 2 mM L-glutamine, 1 mM non-essential amino acids and penicillin/streptomycin (GIBCO, Life Technologies, Carlsbad, CA, USA) at 37 °C in a 5% CO2 humidified incubator [36]. For compound treatment, a 10 mM stock solution was diluted in freshly supplemented DMEM medium to obtain the precise final concentration of the drug. Cells were plated at a density of 5 × 10^5 cells per well into 12-well plates and cultured with 1 mL supplemented DMEM cell medium for 24 h before compound exposure. The following day, the cell medium was replaced with fresh medium containing the compounds diluted at the indicated concentrations. Cells were treated for 24 h. At the end of the treatments, the cell medium was collected and kept at −80 °C until use, cells were rinsed once with PBS and extracted in 100 µL of Laemmli buffer (10 mM Tris, 20% glycerol, and 2% sodium dodecyl sulfate) using a cell-scraper. […] Total protein concentration was determined using the Pierce BCA Protein Assay Kit (Thermo Scientific, Waltham, MA, USA) according to the manufacturer’s instructions. […]
(§2) Aβ1–40/Aβ1–42 peptides, Aβx–38/Aβx–40/Aβx–42, and sAPPα/sAPPβ concentrations in pg/mL were determined, respectively, using amyloid-beta 40 and 42 Human ELISA Kits (Invitrogen), the V-PLEX Plus Aβ Peptide Panel 1 (4G8) Kit (Meso Scale Diagnostics, MSD R©, Rockville, MD, USA), and the sAPPα/sAPPβ Multiplex Kit (Meso Scale Diagnostics, MSD R©, Rockville, MD, USA) according to the manufacturer’s instructions.

For a further data set, the system named is p62/LC3. Briefly: Ratio between p62 and LC3 expression levels. The class given is cell-based, human. The conditions noted are these: compound at 3 µM, 24 h, SY5Y-APP^wt cells. An excerpt:
Compounds from both series were selected to first determine the potential relationship between the repression of Aβ1–x production and the increased expression of LC3 and p62. […] We then also considered the ratio between the p62 and LC3 expression levels.
Figure 3 Effect of compounds 24, 33, 34, 57, 65, 67, 70, and 71 on the autophagic flux in SY5Y-APP^wt cells. […] Cell lysates were immunolabeled with the following antibodies: p62 (a), LC3 (b), and β-actin. Statistical significance was set at * p < 0.05, ** p < […], *[…], **** p < 0.0001, and ns as not significant.

Data set [1] deals with αCTF (APP carboxy-terminal fragment). Briefly: αCTF level by Western blotting in SY5Y-APP^WT cells. The class given is cell-based, human. As to conditions: for EC (20-fold increase): concentration increasing αCTF 20-fold vs untreated control, SY5Y-APP^WT cells, read-out: αCTF (C20). The procedure: (§3) The final and selected intermediate compounds were evaluated for their ability to modulate APP processing in the SH-SY5Y human neuroblastoma cell line stably expressing the neuronal isoform of human wild-type APP^695 (SY5Y-APP^WT), a well-established model for the study of APP metabolism. APP carboxy-terminal fragments (αCTFs and AICD) levels were assessed by Western blotting (WB). The effect of the reference and test compounds on αCTFs and AICD is expressed as the intensity of corresponding WB bands. The concentration of compounds able to increase 20-times αCTFs and AICD (C20) when compared to the control condition was calculated. Selected compounds were also evaluated for their ability to modulate the secretion of soluble APP fragments (sAPPα and sAPPβ). Aβ1–x levels (Aβ1–40 and Aβ1–42) after treatment with the reference and tested compounds were measured in the cell media by ELISA (Table 1). […] Selected hit compounds were then further evaluated for their ability to decrease the level of N-truncated Aβ peptides (Aβx–38, Aβx–40, and Aβx–42).
(§4) The human neuroblastoma cell line SY5Y-APP^695WT was maintained in Dulbecco’s modified Eagle medium (DMEM, high glucose, pyruvate—GIBCO, Life Technologies, Carlsbad, CA, USA) supplemented with 10% fetal bovine serum, 2 mM L-glutamine, 1 mM non-essential amino acids and penicillin/streptomycin (GIBCO, Life Technologies, Carlsbad, CA, USA) at 37 °C in a 5% CO2 humidified incubator [36]. For compound treatment, a 10 mM stock solution was diluted in freshly supplemented DMEM medium to obtain the precise final concentration of the drug. Cells were plated at a density of 5 × 10^5 cells per well into 12-well plates and cultured with 1 mL supplemented DMEM cell medium for 24 h before compound exposure. The following day, the cell medium was replaced with fresh medium containing the compounds diluted at the indicated concentrations. Cells were treated for 24 h. At the end of the treatments, the cell medium was collected and kept at −80 °C until use, cells were rinsed once with PBS and extracted in 100 µL of Laemmli buffer (10 mM Tris, 20% glycerol, and 2% sodium dodecyl sulfate) using a cell-scraper. The cell lysate was further sonicated (30 pulses of 0.5 s, 60 Hz) for 5 min. Total protein concentration was determined using the Pierce BCA Protein Assay Kit (Thermo Scientific, Waltham, MA, USA) according to the manufacturer’s instructions. Samples were stored at −80 °C until analysis.
(§5) Cell protein lysates were prepared for Western blot analysis by diluting the sample with 1 volume of NuPAGE® lithium dodecyl sulfate (LDS) 2X sample buffer supplemented with 20% NuPAGE® sample reducing agents (Invitrogen). Samples were heated for 10 min at 100 °C. Ten µg of total proteins per well were loaded onto precast 4–12% Criterion XT Bis-Tris polyacrylamide gels (Bio-Rad) and electrophoresis was achieved after applying a tension of 150 V for 90 min using a Criterion electrophoresis cell with the NuPAGE® MOPS SDS running buffer (1X). Proteins were transferred to a nitrocellulose membrane of […] pore size (G&E Healthcare, Madison, WI, USA) using the Criterion blotting system and applying a tension of 100 V for 45 min. To resolve proteins of low molecular weights such as carboxy-terminal fragments of APP, 12% Criterion XT Bis-Tris polyacrylamide gels (Bio-Rad, Hercules, CA, USA) were used, and electrophoresis was performed for 70 min at 150 V in a NuPAGE® MES SDS running buffer (1X). Proteins were transferred to a nitrocellulose membrane of 0.2 µm pore size (G&E Healthcare, Madison, WI, USA) at 100 V for 40 min. Molecular weight calibration was achieved using molecular weight markers (Novex and Magic Marks, Life Technologies, Carlsbad, CA, USA). Protein transfer and quality were determined by a reversible Ponceau Red coloration (0.2% xylidine Ponceau Red and 3% trichloroacetic acid). […]

Data set [2] has as its system Aβ1–40 peptide secretion. The experiment in a line: Aβ1–40 secretion in cell medium by ELISA. Type of data set: cell-based, human. The procedure:
as §3, §4
(§6) Conditioned media of SY5Y-APP^695WT collected at the end of treatments were centrifuged at 1000× g for 5 min to eliminate cell debris.
as §2

In data set [3] the test system is AICD (APP intracellular domain). The experiment in a line: AICD level by Western blotting in SY5Y-APP^WT cells. Type of data set: cell-based, human. The conditions noted are these: concentration increasing AICD 20-fold vs untreated control, read-out: AICD (C20). The protocol: as §3, §4, §5
The next data set has as its system sAPPβ secretion. The experiment in a line: sAPPβ secretion (MSD sAPPα/sAPPβ Multiplex Kit). The conditions noted are these: SY5Y cells, mean ± SD of at least three experiments in triplicate. The class given is cell-based, human. The protocol: as §1, §4, §6, §2
The next data set concerns Aβ1–42 peptide secretion. Briefly: Aβ1–42 secretion in cell medium by ELISA. The class given is cell-based, human. As to conditions: SY5Y-APP^WT cells, 24 h treatment, mean ± SD of at least three experiments in triplicate. The protocol: as §3, §4, §6, §2
Data set [4] deals with SY5Y-APP^695WT cells. The experiment in a line: in vitro. Type of data set: cell-based, human. The procedure:
(§7) Cytotoxicity was measured using 3-(4,5-dimethylthiazol-2-yl)-5-(3-carboxymethoxyphenyl)-2-(4-sulfophenyl)-2H-tetrazolium (MTS) tests. SY5Y-APP^695WT cells were plated in a 96-well plate at 3 × 10^4 cells per well and allowed to attach for 24 h. Cells were then incubated for 72 h with 100 µL of DMEM with 10% SVF containing (or not) the defined concentration of drugs. Cytotoxicity was determined by using the colorimetric MTS assay (Cell Titer 96® Aqueous One Solution Cell Proliferation Assay-MTS Promega, Madison, WI, USA) according to the manufacturer’s instructions. Absorbance was read at 490 nm.

The next data set in a line: in vitro. Type of data set: cell-based, human. The conditions noted are these: human. The protocol: as §7
In data set [5] the test system is SY5Y-APP^695WT cells. As to conditions: 50% cell death after 72 h treatment; read-out: Cytotox. CC50; cited from earlier work.
In data set [6] the test system is Aβ1–40 peptide secretion. The conditions noted are these: SY5Y cells; cited from earlier work.
Where [7] appears, read: SY5Y-APP^WT cells, 24 h treatment, mean ± SD of at least three experiments in triplicate, read-out: Aβ1–40 IC50.

Where two headings read alike, the source gives them in different places. Bounds are passed on as bounds.

The source of these data is article PMC9658513, “Discovery of Compounds That Selectively Repress the Amyloidogenic Processing of the Amyloid Precursor Protein: Design, Synthesis and Pharmacological Evaluation of Diphenylpyrazoles” (International Journal of Molecular Sciences, 2022).

Consider “N′-[[3-[4-(Dimethylaminomethyl)-3-[4-[3-(dimethylamino)propyl]phenyl] Pyrazol-1-yl]phenyl]methyl]-N,N,N′-trimethyl-propane-1,3-diamine [Compound 34]”, for which the “sAPPα C1.5” value in the data set with sAPPα is over 10 µM. The p62/LC3 with p62/LC3 amounted to 0.91. Moreover, the figures for the EC (20-fold increase) in data set [1] and in data set [3] were 1.1 µM and 1.9 µM, respectively. For the same compound, the figures for the IC50 with Aβ1–40 peptide secretion [2] (setting [7]), in the data set with sAPPβ secretion and in the data set on Aβ1–42 peptide secretion were 5.7 ± 0.5 µM, 4.5 ± 0.7 µM and 8.3 ± 0.2 µM, respectively. This compound also registered a CC50 in the data set on SY5Y-APP^695WT cells [4] of over 100 µM. The “Cytotox. CC50” value in the data set on SY5Y-APP^695WT cells [4] turned out to be 100 µM.
On to “N′-[[3-[4-[3-(Dimethylamino)propyl]-3-[4-[3-(dimethylamino)propyl]phenyl] Pyrazol-1-yl]phenyl]methyl]-N,N,N′-trimethyl-propane-1,3-diamine [Compound 35]”, for which the p62/LC3 in the data set with p62/LC3 is about 1. For the same compound, the EC (20-fold increase) is reported as 5.1 µM in data set [1] and 5.4 µM in data set [3]. Further, the figures for the concentration for half-maximal inhibition (IC50) in the data set with Aβ1–40 peptide secretion [2] (setting [7]) and in the data set on Aβ1–42 peptide secretion were 12.4 ± 0.6 µM and 13.2 ± 0.2 µM, respectively. The CC50 with SY5Y-APP^695WT cells [4] was over 100 µM.
In the case of `Cc1cn(-c2cccc(CN(C)CCCN(C)C)c2)nc1-c1ccc(CN(C)CCCN(C)C)cc1` [Compound 69, [3-(Dimethylamino)propyl][(4-{1-[3-({[3-(dimethylamino)propyl](methyl)amino}methyl)phenyl]-4-methyl-1H-pyrazol-3-yl}phenyl)methyl]methylamine], the “sAPPα C1.5” value in the data set with sAPPα is reported as over 5 µM. The “C20 for CTFα and AICD” value in data set [1] (CTFα and AICD together) is reported as “around 1 µM”. In addition, the EC (20-fold increase) was determined as 0.6 µM in data set [1] (Homo sapiens) and 1 µM in data set [3] (Homo sapiens). The IC50 was about 1 µM with Aβ1–40 peptide secretion [2] (Homo sapiens, Aβ1–40 and Aβ1–42 not distinguished, read-out: IC50 for Aβ secretion (Aβ1–x production)); 1.4 ± 0.1 µM in the data set on Aβ1–40 peptide secretion [2] (Homo sapiens, SY5Y-APP^WT cells, 24 h treatment, mean ± SD of at least three experiments in triplicate, read-out: Aβ1–40 IC50); 2.8 ± 1.1 µM with sAPPβ secretion (Homo sapiens); 1.6 ± 0.1 µM in the data set with Aβ1–42 peptide secretion (Homo sapiens). Further, the CC50 at 72 h in “in vitro” worked out at 2 µM.
As for `CCN(CC)CCCC(C)Nc1ccnc2cc(Cl)ccc12` (centres unmarked) [CQ, chloroquine, reference compound], the CC50 with SY5Y-APP^695WT cells [5] was 30 µM. In addition, the IC50 in the data set on Aβ1–40 peptide secretion [6] was 7 µM.
